Test results: patent US9296759B2, “Amino-oxazine and amino-dihydrothiazine compounds as beta-secretase modulators and methods of use” (AMGEN INC., priority 2011, dated 2016)
Where two headings read alike, the source gives them in different places.

Assays:
[1] = system: Aβ40 in conditioned medium of cells stably expressing Amyloid Precursor Protein (APP); experiment: In vitro BACE cell-based assay (HEK cell assay, Aβ40 sandwich ELISA); details: Homo sapiens, HEK293; average IC50, Aβ40, 24 h incubation
Summary of the method: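 Secreted Aβ40 was quantified by sandwich ELISA (pAb40 capture, biotinylated 6E10 detection, Europium time-resolved fluorescence). IC50 derived from percent inhibition versus concentration.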

Cathepsin D = Cathepsin D (Homo sapiens (Human), UniProt P07339); experiment: In vitro enzymatic Cat D (Cathepsin D) FRET assay; format: biochemical; details: average IC50
Summary of the method: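 CHO-expressed recombinant enzyme in 0.05 M citrate pH 3.5, 5 mM CHAPS, 10% DMSO final; reaction started with 20 nM quenched-peptide FRET substrate (cleavage site spanned by fluorophore/quencher), 1 h incubation.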

Abeta 40 = experiment: In vivo inhibition of beta-secretase: Abeta 40 reduction in CSF and brain of the rat; details: 10 mpk, after 4 hrs
Source text: In Vivo Inhibition of Beta-Secretase
Several animal models, including mouse, rat, dog, and monkey, may be used to screen for inhibition of beta-secretase activity in vivo following administration of a test compound sample. Animals used in this invention can be wild type, transgenic, or gene knockout animals. For example, the Tg2576 mouse model, prepared and conducted as described in Hsiao et al., 1996, Science 274, 99-102, and other non-transgenic or gene knockout animals are useful to analyze in vivo inhibition of Amyloid beta peptide (Abeta) production in the presence of inhibitory test compounds. Generally, 2 to 18 month old Tg2576 mice, gene knockout mice or non-transgenic animals are administered test compounds formulated in vehicles, such as cyclodextran, phosphate buffers, hydroxypropyl methylcellulose or other suitable vehicles. One to twenty-four hours following the administration of compound, animals are sacrificed, and brains as well as cerebrospinal fluid (CSF) and plasma are removed for analysis of A-beta levels and drug or test compound concentrations (Dovey et al., 2001, Journal of Neurochemistry, 76, 173-181) Beginning at time 0, animals are administered by oral gavage, or other means of delivery such as intravenous injection, an inhibitory test compound of up to 100 mg/kg in a standard, conventional formulation, such as 2% hydroxypropyl methylcellulose, 1% Tween80. A separate group of animals receive 2% hydroxypropyl methylcellulose, 1% Tween80 alone, containing no test compound, and serve as a vehicle-control group. At the end of the test period, animals are sacrificed and brain tissues, plasma or cerebrospinal fluid are collected. Brains are either homogenized in 10 volumes (w/v) of 0.2% diethylamine (DEA) in 50 mM NaCl (Best et al., 2005, Journal of Pharmacology and Experimental Therapeutics, 313, 902-908), or in 10 volumes of 0.5% TritonX-100 in Tris-buffered saline (pH at about 7.6). Homogenates are centrifuged at 355,000 g, 4° C. for 30 minutes. CSF or brain supernatants are then analyzed for the presence of A-beta peptide by specific sandwich ELISA assays based on ECL (Electrochemiluminescence) technology. For example, rat Abeta40 is measured using biotinylated-4G8 (Signet) as a capture antibody and Fab40 (an in-house antibody specific to the C-terminal of Abeta40) as a detection antibody. For example, 4 hours after administration of 30 mg/kg oral dose of the test compound in 2% hydroxypropyl methylcellulose, 1% Tween80 (pH2.2) to 200 g male Sprague Dawley rats, amyloid beta peptide levels are measured for reduction by X % and Y % in cerebrospinal fluid and brain, respectively, when compared to the levels measured in the vehicle-treated rats.
• Oral: 2% HPMC, 1% Tween80, pH 2.2 • IV: 5% EtOH, 45% Propylene glycol in 5% Dextrose
The compounds of the invention may be shown to reduce the formation and/or deposition of amyloid beta peptide in the cerebrospinal fluid (CSF) as well as in the brain of a mouse or rat at either 3 mpk, 10 mpk or 30 mpk (mpk=mg compound per kg weight of the animal) dosing concentrations after 4 hrs.

[2] = target: BACE 1 (beta secretase enzyme) (Homo sapiens (Human), UniProt P56817); experiment: In vitro enzymatic BACE FRET assay; format: biochemical; details: average IC50
Summary of the method: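 The enzyme was tested in 0.05 M acetate, pH 4.2, with 10% DMSO final and 100 uM genapol. The reaction was started with 50 nM quenched FRET peptide substrate, incubated one hour and stopped with Tris to neutral pH. Cleavage was read as fluorescence ([…]).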

[3] = system: pigment epithelium of the rat's eye; details: higher compound dose given for three months; cited from earlier work
[4] = people of the phase I trial; cited from earlier work
[5] = Abeta 40, rat CSF, read-out: % reduction of rat CSF levels at 10 pmk
[6] = Abeta 40, rat brain, read-out: % reduction of rat brain levels at 10 mpk

Sequence of BACE 1 (beta secretase enzyme) (P56817 46-501): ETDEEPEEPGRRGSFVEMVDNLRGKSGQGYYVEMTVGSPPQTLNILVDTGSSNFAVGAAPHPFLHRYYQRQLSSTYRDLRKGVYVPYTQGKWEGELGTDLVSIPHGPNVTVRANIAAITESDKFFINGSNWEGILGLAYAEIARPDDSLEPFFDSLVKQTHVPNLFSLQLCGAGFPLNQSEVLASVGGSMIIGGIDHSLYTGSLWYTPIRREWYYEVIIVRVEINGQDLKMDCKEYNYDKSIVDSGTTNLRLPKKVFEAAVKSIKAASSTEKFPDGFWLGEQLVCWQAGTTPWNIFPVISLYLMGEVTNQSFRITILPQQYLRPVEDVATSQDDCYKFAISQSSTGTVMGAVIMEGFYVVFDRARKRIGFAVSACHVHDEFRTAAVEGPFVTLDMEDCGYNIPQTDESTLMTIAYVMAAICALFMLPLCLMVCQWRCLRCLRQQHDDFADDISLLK
Sequence of Cathepsin D (P07339 65-412, species assumed): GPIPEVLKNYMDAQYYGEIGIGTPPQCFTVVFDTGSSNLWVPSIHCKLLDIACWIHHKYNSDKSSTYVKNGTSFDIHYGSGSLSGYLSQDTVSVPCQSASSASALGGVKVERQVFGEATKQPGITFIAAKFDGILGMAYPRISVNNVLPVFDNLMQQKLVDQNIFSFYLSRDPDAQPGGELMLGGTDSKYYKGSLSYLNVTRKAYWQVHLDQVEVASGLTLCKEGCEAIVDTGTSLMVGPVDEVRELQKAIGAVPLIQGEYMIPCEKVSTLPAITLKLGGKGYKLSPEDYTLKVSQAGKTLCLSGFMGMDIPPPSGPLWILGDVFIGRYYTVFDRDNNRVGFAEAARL

Compound	IC50 [1] [nM]	IC50 (Cathepsin D) [µM]	IC50 [2] [nM]	inhibition in vivo at 10 mg/kg (Abeta 40; [5]) [%]	inhibition in vivo at 10 mg/kg (Abeta 40; [6]) [%]	retinal toxicity finding [3]	eye assessments [4]
COc1ccc(C(=O)Nc2ccc3c(c2)[C@@]2(CCSC(N)=N2)c2cc(C4=CCOCC4)nc(F)c2O3)nc1 [Example 101, N-((5S)-2′-amino-3-(3,6-dihydro-2H-pyran-4-yl)-1-fluoro-5′,6′-dihydrospiro[chromeno[2,3-c]pyridine-5,4′-[1,3]thiazin]-7-yl)-5-methoxy-2-pyridinecarboxamide]	0.7	198	1.5	76	59		
NC1=N[C@@]2(CCO1)c1cc(NC(=O)c3ccc(Cl)cn3)ccc1Oc1c2cc(-c2cncc(F)c2)nc1F [Example 71, N-((5S)-2′-amino-1-fluoro-3-(5-fluoro-3-pyridinyl)-5′,6′-dihydrospiro[chromeno[2,3-c]pyridine-5,4′-[1,3]oxazin]-7-yl)-5-chloro-2-pyridinecarboxamide]	0.3	400	0.6	79	70		
NC1=N[C@@]2(CCO1)c1cc(NC(=O)c3ccc(Cl)cn3)ccc1Oc1ncc(C3CC3)cc12 [Example 73, N-((5S)-2′-amino-3-cyclopropyl-5′,6′-dihydrospiro[chromeno[2,3-b]pyridine-5,4′-[1,3]oxazin]-7-yl)-5-chloro-2-pyridinecarboxamide]	3.2	433	12.7	38	7		
COc1ccc(C(=O)Nc2ccc3c(c2)[C@@]2(CCOC(N)=N2)c2cc(C4=CCCOC4)nc(F)c2O3)nc1 [Example 84, N-((5S)-2′-amino-3-(5,6-dihydro-2H-pyran-3-yl)-1-fluoro-5′,6′-dihydrospiro[chromeno[2,3-c]pyridine-5,4′-[1,3]oxazin]-7-yl)-5-methoxy-2-pyridinecarboxamide]	0.1	313	0.9	83	71		
C[C@@]1(c2cc(-c3cncnc3)c(F)cc2F)CCSC(N)=N1 [LY 2811376]						ravaged the pigment epithelium of the rat's eye	did not show any abnormalities
NC1=N[C@@]2(CCS1)c1cc(NC(=O)c3ccc(Cl)cn3)ccc1Oc1c2cc(C2=CCCOC2)nc1F [Example 68, N-((5S)-2′-amino-3-(5,6-dihydro-2H-pyran-3-yl)-1-fluoro-5′,6′-dihydrospiro[chromeno[2,3-c]pyridine-5,4′-[1,3]thiazin]-7-yl)-5-chloro-2-pyridinecarboxamide]	0.5	217	0.8	77	73		
COc1cnc(C(=O)Nc2ccc3c(c2)[C@@]2(CCSC(N)=N2)c2cc(C4=CCCOC4)nc(F)c2O3)cn1 [Example 66, N-((5S)-2′-amino-3-(5,6-dihydro-2H-pyran-3-yl)-1-fluoro-5′,6′-dihydrospiro[chromeno[2,3-c]pyridine-5,4′-[1,3]thiazin]-7-yl)-5-methoxy-2-pyrazinecarboxamide]	1	179	1.8	77	66		
COc1cnc(C(=O)Nc2ccc3c(c2)[C@@]2(CCOC(N)=N2)c2cc(C4CC4)nc(F)c2O3)cn1 [Example 54, N-((5S)-2′-amino-3-cyclopropyl-1-fluoro-5′,6′-dihydrospiro[chromeno[2,3-c]pyridine-5,4′-[1,3]oxazin]-7-yl)-5-methoxy-2-pyrazinecarboxamide]	9.6	269	5	77	65		

Continued, in another order:

IC50 [1] [nM]	IC50 (Cathepsin D) [µM]	IC50 [2] [nM]	Compound	inhibition in vivo at 10 mg/kg (Abeta 40; [5]) [%]	inhibition in vivo at 10 mg/kg (Abeta 40; [6]) [%]	retinal toxicity finding [3]	eye assessments [4]
4.2	> 400	2.7	COc1cnc(C(=O)Nc2ccc3c(c2)[C@@]2(CCOC(N)=N2)c2cc(C4=CCCOC4)nc(F)c2O3)cn1 [Example 51, N-((5S)-2′-amino-3-(5,6-dihydro-2H-pyran-3-yl)-1-fluoro-5′,6′-dihydrospiro[chromeno[2,3-c]pyridine-5,4′-[1,3]oxazin]-7-yl)-5-methoxy-2-pyrazinecarboxamide]	85	76		
1	295	3.1	COc1cnc(C(=O)Nc2ccc3c(c2)[C@@]2(CCSC(N)=N2)c2cc(C4=CCCOC4)ncc2O3)cn1 [Example 104, N-((5S)-2′-amino-3-(5,6-dihydro-2H-pyran-3-yl)-5′,6′-dihydrospiro[chromeno[2,3-c]pyridine-5,4′-[1,3]thiazin]-7-yl)-5-methoxy-2-pyrazinecarboxamide]	64	43		
7	245	13.6	NC1=N[C@@]2(CCO1)c1cc(NC(=O)c3ccc(Cl)cn3)ccc1Oc1ncc(Br)cc12 [Example 34, N-((5S)-2′-amino-3-bromo-5′,6′-dihydrospiro[chromeno[2,3-b]pyridine-5,4′-[1,3]oxazin]-7-yl)-5-chloro-2-pyridinecarboxamide]	64	17		
1.1	400	10.7	NC1=N[C@@]2(CCO1)c1cc(NC(=O)c3ccc(Cl)cn3)ccc1Oc1cnc(C3CC3)cc12 [Example 81, N-((5S)-2′-amino-3-cyclopropyl-5′,6′-dihydrospiro[chromeno[2,3-c]pyridine-5,4′-[1,3]oxazin]-7-yl)-5-chloro-2-pyridinecarboxamide]	76	64		
0.5	256	1.4	COc1ccc(C(=O)Nc2ccc3c(c2)[C@@]2(CCOC(N)=N2)c2cc(-c4cncc(F)c4)nc(F)c2O3)nc1 [Example 87, N-((5S)-2′-amino-1-fluoro-3-(5-fluoro-3-pyridinyl)-5′,6′-dihydrospiro[chromeno[2,3-c]pyridine-5,4′-[1,3]oxazin]-7-yl)-5-methoxy-2-pyridinecarboxamide]	75	53		
0.2	358	1.1	NC1=N[C@@]2(CCO1)c1cc(NC(=O)c3ccc(F)cn3)ccc1Oc1c2cc(C2=CCOCC2)nc1F [Example 72, N-((5S)-2′-amino-3-(3,6-dihydro-2H-pyran-4-yl)-1-fluoro-5′,6′-dihydrospiro[chromeno[2,3-c]pyridine-5,4′-[1,3]oxazin]-7-yl)-5-fluoro-2-pyridinecarboxamide]	78	72		
